Patent US10810329B2, “In silico design of peptides equilibrated in a lipid bilayer with partition free energies indicating probability of antimicrobial activity” (priority 2015, dated 2020)
Values after ≈ are worked out from the molar mass of the structure shown. Peptide text beside a SMILES is read from it.

Assays:
[1] = system: E. coli ATCC 25922; type: cell-based, Escherichia coli; conditions: for Antimicrobial activity (MIC) Experimental values: ATCC 25922; for MIC in MH medium: ATCC 25922, 16 h
Description: (§1) MIC: Minimal Inhibitory Concentration of AMPs in MH Medium Against E. coli ATCC 25922 Minimal inhibitory concentration (MIC) represents for the lowest concentration of peptide at which the AMP can still kill 90% of the bacteria. All MIC tests for WLK peptide series SEQ ID NO:1-13 were measured against Escherichia coli strain (ATCC 25922) in triplicate. Peptide concentration was determined by UV spectrophotometer (Ultrospec 1100 pro from Amersham Biosciences) at 280 nm with proper extinction coefficient. (Gill S. C. & Von Hippel P. H., Analytical biochemistry 1989, 182(2), 319-326). All of the samples were prepared from a stock solution containing peptides of concentrations 5, 2.5, 1.25, 0.625, 0.313, 0.156 and 0.078 mg/ml. Bacteria culture in the middle of logarithmic growth at a concentration of 5×10^5 colony-formation unit (CFU) and protein solution at the aforementioned concentrations were uniformly mixed in a 96-well culture plate (each well contains 1 microliter protein solution and 99 microliter of bacteria culture). After growing the culture at 37° C. for 16 hours, how bacterial growth was inhibited was measured by Thermo Max (Molecular Devices) at the wavelength of 600 nm. The MIC values were determined by triplicates of the above experiments.

[2] = system: Escherichia coli strain (ATCC 25922); type: cell-based
Description: as §1, with “Minimal” for “MIC: Minimal Inhibitory Concentration of AMPs in MH Medium Against E. coli ATCC 25922 Minimal”

SMILES | Antimicrobial activity (MIC) Experimental values [1] | MIC in MH medium [1] | MIC in LYM medium, NaCl 50 [2] | MIC in LYM medium, NaCl 100 [2] | MIC in LYM medium, NaCl 200 [2] | MIC in LYM medium, NaCl 300 [2] | MIC in LYM medium, control [2]
CC(C)C[C@H](NC(=O)[C@H](Cc1c[nH]c2ccccc12)NC(=O)[C@H](CCCCN)NC(=O)[C@H](CC(C)C)NC(=O)[C@H](Cc1c[nH]c2ccccc12)NC(=O)[C@H](CCCCN)NC(=O)[C@H](CC(C)C)NC(=O)[C@H](Cc1c[nH]c2ccccc12)NC(=O)[C@H](CCCCN)NC(=O)[C@@H](N)CCCCN)C(=O)N[C@@H](CCCCN)C(=O)N[C@@H](CCCCN)C(=O)N[C@@H](CCCCN)C(=O)O [SEQ ID NO. 1, KKWLKWLKWLKKK, reference compound] (H-KKWLKWLKWLKKK-OH; N-terminus and C-terminus assumed) | 3.13 µg/mL | 3.13 µg/mL (≈ 1.73 µM) | 1.56 µg/mL (≈ 0.86 µM) | 3.13 µg/mL (≈ 1.73 µM) | 6.25 µg/mL (≈ 3.45 µM) | 6.25 µg/mL (≈ 3.45 µM) | 1.56 µg/mL (≈ 0.86 µM)
CC(C)C[C@H](NC(=O)[C@H](Cc1c[nH]c2ccccc12)NC(=O)[C@H](CCCCN)NC(=O)[C@H](CC(C)C)NC(=O)[C@H](Cc1c[nH]c2ccccc12)NC(=O)[C@H](CCCCN)NC(=O)[C@H](CC(C)C)NC(=O)[C@H](Cc1c[nH]c2ccccc12)NC(=O)[C@@H](N)CCCCN)C(=O)N[C@@H](CCCCN)C(=O)N[C@@H](CCCCN)C(=O)N[C@@H](CCCCN)C(=O)N[C@@H](CCCCN)C(=O)O [SEQ ID NO. 2, KWLKWLKWLKKKK] (H-KWLKWLKWLKKKK-OH; N-terminus and C-terminus assumed) | 6.25 µg/mL | 6.25 µg/mL (≈ 3.45 µM) | 1.56 µg/mL (≈ 0.86 µM) | 6.25 µg/mL (≈ 3.45 µM) | 12.5 µg/mL (≈ 6.89 µM) | 12.5 µg/mL (≈ 6.89 µM) | 1.56 µg/mL (≈ 0.86 µM)
CC(C)C[C@H](NC(=O)[C@H](Cc1c[nH]c2ccccc12)NC(=O)[C@H](CCCCN)NC(=O)[C@H](CC(C)C)NC(=O)[C@H](Cc1c[nH]c2ccccc12)NC(=O)[C@H](CCCCN)NC(=O)[C@H](CC(C)C)NC(=O)[C@@H](N)Cc1c[nH]c2ccccc12)C(=O)N[C@@H](CCCCN)C(=O)N[C@@H](CCCCN)C(=O)N[C@@H](CCCCN)C(=O)N[C@@H](CCCCN)C(=O)N[C@@H](CCCCN)C(=O)O [SEQ ID NO. 3, WLKWLKWLKKKKK] (H-WLKWLKWLKKKKK-OH; N-terminus and C-terminus assumed) | 6.25 µg/mL | 6.25 µg/mL (≈ 3.45 µM) | 3.13 µg/mL (≈ 1.73 µM) | 3.13 µg/mL (≈ 1.73 µM) | 12.5 µg/mL (≈ 6.89 µM) | 25 µg/mL (≈ 13.8 µM) | 1.56 µg/mL (≈ 0.86 µM)
CC(C)C[C@H](NC(=O)[C@H](Cc1c[nH]c2ccccc12)NC(=O)[C@H](CCCCN)NC(=O)[C@H](CC(C)C)NC(=O)[C@H](Cc1c[nH]c2ccccc12)NC(=O)[C@H](CCCCN)NC(=O)[C@@H](N)CC(C)C)C(=O)N[C@@H](CCCCN)C(=O)N[C@@H](CCCCN)C(=O)N[C@@H](CCCCN)C(=O)N[C@@H](CCCCN)C(=O)N[C@@H](CCCCN)C(=O)N[C@@H](Cc1c[nH]c2ccccc12)C(=O)O [SEQ ID NO. 4, LKWLKWLKKKKKW] (H-LKWLKWLKKKKKW-OH; N-terminus and C-terminus assumed) | 12.5 µg/mL | 12.5 µg/mL (≈ 6.89 µM) | 3.13 µg/mL (≈ 1.73 µM) | 3.13 µg/mL (≈ 1.73 µM) | 12.5 µg/mL (≈ 6.89 µM) | 50 µg/mL (≈ 27.6 µM) | 1.56 µg/mL (≈ 0.86 µM)
